Assay results as given in US20100010219A1, “METHOD FOR PRODUCING PYRROLIDINE COMPOUND” (JAPAN TOBACCO INC., priority 2006, published 2010).
Where a name gives a salt, the structure may show the parent alone.

target: T1, human HSD-1 (recombinant HSD-1) (Homo sapiens, UniProt P28845); assay: HSD-1 activity inhibitory action in vitro (SPA, conversion of cortisone to cortisol); format: biochemical; conditions: recombinant human HSD-1 expressed using baculovirus system; 10 nM 3H cortisone, 500 μM NADPH; room temperature 90 to 120 min; read-out: hHSD1 (IC50 (nM))
T1 construct: made in house
T1 sequence (P28845 whole entry): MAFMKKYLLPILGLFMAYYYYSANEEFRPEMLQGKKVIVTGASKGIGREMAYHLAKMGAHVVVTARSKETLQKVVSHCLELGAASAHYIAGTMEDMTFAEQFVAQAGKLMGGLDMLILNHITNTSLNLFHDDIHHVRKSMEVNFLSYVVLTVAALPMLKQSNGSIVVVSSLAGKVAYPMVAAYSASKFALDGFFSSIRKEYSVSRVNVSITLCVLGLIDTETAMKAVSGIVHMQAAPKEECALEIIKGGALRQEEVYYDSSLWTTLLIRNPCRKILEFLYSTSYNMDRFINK

IC50, < 30 nM:
CNCC(=O)N1CCC(n2ncc(C(=O)N3CC[C@@H](c4ccccc4C(F)(F)F)C3)c2C2CC2)CC1 [Example 85, 1-{5-cyclopropyl-1-[1-(2-methylaminoacetyl)piperidin-4-yl]-1H-pyrazole-4-carbonyl}-[(S)-3-(2-trifluoromethylphenyl)]pyrrolidine hydrochloride]
O=C(CCCO)N1CCC(n2ncc(C(=O)N3CC[C@@H](c4ccccc4C(F)(F)F)C3)c2C2CC2)CC1 [Example 80, 1-{5-cyclopropyl-1-[1-(4-hydroxybutyryl)piperidin-4-yl]-1H-pyrazole-4-carbonyl}-[(S)-3-(2-trifluoromethylphenyl)]pyrrolidine]
NC1CCN(C(=O)N2CCC(n3ncc(C(=O)N4CC[C@@H](c5ccccc5C(F)(F)F)C4)c3C3CC3)CC2)C1 (stereo partly drawn) [Example 36, 1-{1-[1-(3-aminopyrrolidine-1-carbonyl)piperidin-4-yl]-5-cyclopropyl-1H-pyrazole-4-carbonyl}-[(S)-3-(2-trifluoromethylphenyl)]pyrrolidine hydrochloride]
O=C(c1cnn(C2CCN(CC3(C(=O)NCCO)CC3)CC2)c1C1CC1)N1CC[C@@H](c2ccccc2C(F)(F)F)C1 [Example 107, 1-(5-cyclopropyl-1-{1-[1-(2-hydroxyethylcarbamoyl)cyclopropylmethyl]piperidin-4-yl}-1H-pyrazole-4-carbonyl)-[(S)-3-(2-trifluoromethylphenyl)]pyrrolidine hydrochloride]
CC1(c2c(C(=O)N3CCC(c4ccccc4C(F)(F)F)C3)cnn2[C@H]2CC[C@@H](C(=O)O)CC2)CC1 (stereo partly drawn) [Example 191, cis-4-{5-(1-methylcyclopropyl)-4-[3-(2-trifluoromethylphenyl)pyrrolidine-1-carbonyl]pyrazol-1-yl}cyclohexanecarboxylic acid]
NCCC(=O)N1CCC(n2ncc(C(=O)N3CC[C@@H](c4ccccc4C(F)(F)F)C3)c2C2CC2)CC1 [Example 83, 1-{1-[1-(3-aminopropionyl)piperidin-4-yl]-5-cyclopropyl-1H-pyrazole-4-carbonyl}-[(S)-3-(2-trifluoromethylphenyl)]pyrrolidine hydrochloride]
O=C(N[C@H](CO)Cc1ccccc1)N1CCC(n2ncc(C(=O)N3CC[C@@H](c4ccccc4C(F)(F)F)C3)c2C2CC2)CC1 [Example 50, 1-(1-{1-[(S)-1-benzyl-2-hydroxyethylcarbamoyl]piperidin-4-yl}-5-cyclopropyl-1H-pyrazole-4-carbonyl)-[(S)-3-(2-trifluoromethylphenyl)]pyrrolidine]
O=C(c1cnn(C2CCN(c3ccc(N4CCOC4=O)cc3)CC2)c1C1CC1)N1CCC(c2ccccc2C(F)(F)F)C1 (centres unmarked) [Example 169, 1-(5-cyclopropyl-1-{1-[4-(2-oxooxazolidin-3-yl)phenyl]piperidin-4-yl}-1H-pyrazole-4-carbonyl)-3-(2-trifluoromethylphenyl)pyrrolidine]
O=C(c1cnn(C2CCN(C(=O)N3CCC[C@@H](O)C3)CC2)c1C1CC1)N1CC[C@@H](c2ccccc2C(F)(F)F)C1 [Example 32, 1-(5-cyclopropyl-1-{1-[(R)-3-hydroxypiperidine-1-carbonyl]piperidin-4-yl}-1H-pyrazole-4-carbonyl)-[(S)-3-(2-trifluoromethylphenyl)]pyrrolidine]
O=C(O)C(=O)N1CCC(n2ncc(C(=O)N3CCC(c4ccccc4C(F)(F)F)C3)c2C2CC2)CC1 (centres unmarked) [Example 158, 1-[5-cyclopropyl-1-(1-oxalylpiperidin-4-yl)-1H-pyrazole-4-carbonyl]-3-(2-trifluoromethylphenyl)pyrrolidine]
CN(C)CCOC(=O)N1CCC(n2ncc(C(=O)N3CC[C@@H](c4ccccc4C(F)(F)F)C3)c2C2CC2)CC1 [Example 59, 1-{5-cyclopropyl-1-[1-(2-dimethylaminoethoxycarbonyl)piperidin-4-yl]-1H-pyrazole-4-carbonyl}-[(S)-3-(2-trifluoromethylphenyl)]pyrrolidine hydrochloride]
CC(=O)N[C@H](C(=O)N1CCC(n2ncc(C(=O)N3CC[C@@H](c4ccccc4C(F)(F)F)C3)c2C2CC2)CC1)C(C)C [Example 72, 1-(1-{1-[(S)-2-acetylamino-3-methylbutyryl]piperidin-4-yl}-5-cyclopropyl-1H-pyrazole-4-carbonyl)-[(S)-3-(2-trifluoromethylphenyl)]pyrrolidine]
O=C(Nc1ccccc1F)N1CCC(n2ncc(C(=O)N3CCC(c4cccnc4)C3)c2C2CC2)CC1 (centres unmarked) [Example 3, 1-{5-cyclopropyl-1-[1-(2-fluorophenylcarbamoyl)piperidin-4-yl]-1H-pyrazole-4-carbonyl}-3-(pyridin-3-yl)pyrrolidine]
O=C(c1cnn(C2CCN(C(=O)N3CC(O)C3)CC2)c1C1CC1)N1CC[C@@H](c2ccccc2C(F)(F)F)C1 [Example 20, 1-{5-cyclopropyl-1-[1-(3-hydroxyazetidine-1-carbonyl)piperidin-4-yl]-1H-pyrazole-4-carbonyl}-[(S)-3-(2-trifluoromethylphenyl)]pyrrolidine]
COC1(c2c(C(=O)N3CCC(c4ccccc4C(F)(F)F)C3)cnn2C2CCN(C(=O)Nc3ccccc3F)CC2)CC1 (centres unmarked) [Example 134, 1-{1-[1-(2-fluorophenylcarbamoyl)piperidin-4-yl]-5-(1-methoxycyclopropyl)-1H-pyrazole-4-carbonyl}-3-(2-trifluoromethylphenyl)pyrrolidine]
COCC1(c2ccccc2)CCN(C(=O)c2cnn(C3CCN(c4ccc(Cl)cn4)CC3)c2C2(C)CC2)C1 (centres unmarked) [Example 174, 1-{1-[1-(5-chloropyridin-2-yl)piperidin-4-yl]-5-(1-methylcyclopropyl)-1H-pyrazole-4-carbonyl}-3-methoxymethyl-3-phenylpyrrolidine]
CC(C)(N)C(=O)N1CCC(n2ncc(C(=O)N3CC[C@@H](c4ccccc4C(F)(F)F)C3)c2C2CC2)CC1 [Example 79, 1-{1-[1-(2-amino-2-methylpropionyl)piperidin-4-yl]-5-cyclopropyl-1H-pyrazole-4-carbonyl}-[(S)-3-(2-trifluoromethylphenyl)]pyrrolidine hydrochloride]
O=C(NS(=O)(=O)c1ccccc1)N1CCC(n2ncc(C(=O)N3CC[C@@H](c4ccccc4C(F)(F)F)C3)c2C2CC2)CC1 [Example 55, 1-[1-(1-benzenesulfonylaminocarbonylpiperidin-4-yl)-5-cyclopropyl-1H-pyrazole-4-carbonyl]-[(S)-3-(2-trifluoromethylphenyl)]pyrrolidine]
CC(C)[C@@H](C(=O)O)N(C)C(=O)N1CCC(n2ncc(C(=O)N3CCC(c4ccccc4C(F)(F)F)C3)c2C2CC2)CC1 (stereo partly drawn) [Example 142, 1-(5-cyclopropyl-1-{1-[((S)-1-carboxy-2-methyl-propyl)methylcarbamoyl]piperidin-4-yl}-1H-pyrazole-4-carbonyl)-3-(2-trifluoromethylphenyl)pyrrolidine]
CC1(NC(=O)N2CCC(n3ncc(C(=O)N4CC[C@@H](c5ccccc5C(F)(F)F)C4)c3C3CC3)CC2)CC1 [Example 126, 1-{5-cyclopropyl-1-[1-(1-methylcyclopropylcarbamoyl)piperidin-4-yl]-1H-pyrazole-4-carbonyl}-[(S)-3-(2-trifluoromethylphenyl)]pyrrolidine]
O=C(c1cccc(Cl)c1)N1CCC(n2ncc(C(=O)N3CCC(c4cccnc4)C3)c2C2CC2)CC1 (centres unmarked) [Example 156, 1-{1-[1-(3-chlorobenzoyl)piperidin-4-yl]-5-cyclopropyl-1H-pyrazole-4-carbonyl}-3-(pyridin-3-yl)pyrrolidine]
CC(=O)NC1CN(C(=O)N2CCC(n3ncc(C(=O)N4CC[C@@H](c5ccccc5C(F)(F)F)C4)c3C3CC3)CC2)C1 [Example 45, 1-{1-[1-(3-acetylaminoazetidine-1-carbonyl)piperidin-4-yl]-5-cyclopropyl-1H-pyrazole-4-carbonyl}-[(S)-3-(2-trifluoromethylphenyl)]pyrrolidine]
CN(C)C1CCN(C(=O)N2CCC(n3ncc(C(=O)N4CC[C@@H](c5ccccc5C(F)(F)F)C4)c3C3CC3)CC2)C1 (stereo partly drawn) [Example 41, 1-{5-cyclopropyl-1-[1-(3-dimethylaminopyrrolidine-1-carbonyl)piperidin-4-yl]-1H-pyrazole-4-carbonyl}-[(S)-3-(2-trifluoromethylphenyl)]pyrrolidine hydrochloride]
O=C(NCC(=O)N1CCC(n2ncc(C(=O)N3CC[C@@H](c4ccccc4C(F)(F)F)C3)c2C2CC2)CC1)C1CC1 [Example 88, 1-{1-[1-(2-cyclopropanecarbonylaminoacetyl)piperidin-4-yl]-5-cyclopropyl-1H-pyrazole-4-carbonyl}-[(S)-3-(2-trifluoromethylphenyl)]pyrrolidine]
CC(C)(CC(=O)N1CCC(n2ncc(C(=O)N3CCC(c4ccccc4C(F)(F)F)C3)c2C2CC2)CC1)C(=O)O (centres unmarked) [Example 154, 1-{1-[1-(3-carboxy-3-methyl-butyryl)piperidin-4-yl]-5-cyclopropyl-1H-pyrazole-4-carbonyl}-3-(2-trifluoromethylphenyl)pyrrolidine]
CC(C)[C@@H](CO)NC(=O)N1CCC(n2ncc(C(=O)N3CC[C@@H](c4ccccc4C(F)(F)F)C3)c2C2CC2)CC1 [Example 49, 1-(5-cyclopropyl-1-{1-[(S)-1-hydroxymethyl-2-methylpropylcarbamoyl]piperidin-4-yl}-1H-pyrazole-4-carbonyl)-[(S)-3-(2-trifluoromethylphenyl)]pyrrolidine]
